In PubChem BioAssay (NCI):
“And” between values parts separate entries of the source, which are not always exact repeats. Equal values may be shown once.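 Assay format: 96-well plates, 48-hour exposure. GI50 marks 50% less growth. TGI: concentration producing complete growth inhibition.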

What was measured:
Assay in all cases: DTP human tumour cell line panel, 48 h
[1] = test system: RPMI-8226 leukemia
[2] = test system: HL-60(TB) leukemia
[3] = test system: UO-31 renal
[4] = test system: K-562 leukemia
[5] = test system: OVCAR-5 ovarian
[6] = test system: IGROV1 ovarian
[7] = test system: TK-10 renal
[8] = test system: SF-268 CNS
[9] = test system: NCI-H23 lung
[10] = test system: MCF7 breast

Row | Structure (SMILES) | TGI [1] | TGI [2] | GI50 [3] | TGI [3] | TGI [4] | TGI [5] | TGI [6] | GI50 [7] | TGI [7] | TGI [8] | TGI [9] | GI50 [1] | GI50 [10] | TGI [10] | GI50 [4] | GI50 [5] | GI50 [6] | GI50 [8] | GI50 [9] | GI50 [2]
1 | COc1cc(C(=O)N[C@H]2CCc3cc(OC)c(OC)c(OC)c3-c3ccc(SC)c(=O)cc32)cc(OC)c1OC | 25 µM and > 100 µM | 0.578 µM | 0.266 µM | 25 µM and 22.2 µM | 25 µM and > 100 µM | 25 µM | 25 µM and 62.7 µM | 16.1 µM | 25 µM and > 100 µM | 25 µM and 49 µM | – | – | – | – | – | – | – | – | – | –
2 | CC1(C)COC2C(N(Cc3ccccc3)Cc3ccccc3)C(=O)N21 (stereo not drawn) | 91.3 µM | 62.9 µM | – | > 100 µM | 82.9 µM | > 100 µM | > 100 µM | – | > 100 µM | 82.1 µM | > 100 µM | – | – | – | – | – | – | – | – | –
3 | O=C(NN1C(=O)CSC1c1cccc(Cl)c1)C(O)c1ccccc1 (stereo not drawn) | > 100 µM | – | 75.5 µM | > 100 µM | > 100 µM | > 100 µM | > 100 µM | > 100 µM | > 100 µM | > 100 µM | > 100 µM | 23.1 µM | > 100 µM | > 100 µM | 27.4 µM | > 100 µM | > 100 µM | > 100 µM | 56.3 µM | –
4 | CC(=O)/C=C/c1ccc(Nc2c3ccccc3nc3occ(Cl)c23)cc1 | – | 8.56 µM | 14.2 µM | > 100 µM | 13.3 µM | 30.7 µM | – | 3.87 µM | 24.8 µM | 17.5 µM | 13.2 µM | – | 1.07 µM | 14.3 µM | 2.45 µM | 13.9 µM | – | 3.16 µM | 3.1 µM | 3.1 µM
5 | CCOC(=O)C1Cc2ccc3c4c(ccc(c24)C1)CC(C(=O)OCC)C3 | > 100 µM | > 100 µM | – | > 100 µM | > 100 µM | > 100 µM | > 100 µM | – | > 100 µM | > 100 µM | > 100 µM | – | – | – | – | – | – | – | – | –
6 | COC(=O)c1cc(=O)nc2cc3cccccc3n12 | > 100 µM | > 100 µM | – | > 100 µM | > 100 µM | > 100 µM | > 100 µM | – | > 100 µM | – | > 100 µM | – | – | – | – | – | – | – | – | –
7 | CC1=Nc2ccccc2SC(c2c(Cl)cccc2Cl)C1 (stereo not drawn) | 3.09 µM | 1.12 µM | – | 3.09 µM | 1.71 µM | 4.08 µM | 3.31 µM | – | 3.89 µM | 2.73 µM | 2.64 µM | – | – | – | – | – | – | – | – | –
8 | CC1CC2(S(=O)(=O)c3ccccc3)ON1CC2S(=O)(=O)c1ccccc1 (stereo not drawn) | > 100 µM | > 100 µM | – | > 100 µM | > 100 µM | > 100 µM | > 100 µM | – | > 100 µM | > 100 µM | > 100 µM | – | – | – | – | – | – | – | – | –
9 | CC(C)(C)[Si](C)(C)OC1[C@@H](CNC(N)=O)O[C@@H](n2cnc3c(NC(=O)Nc4ccccc4)ncnc32)[C@H]1O[Si](C)(C)C(C)(C)C (stereo partly drawn) | 2.63 µM | 2.12 µM | 1.92 µM | 8.29 µM | 2.13 µM | 13.5 µM | 7.36 µM | – | – | 2.36 µM | 7.83 µM | 1.12 µM | 1.83 µM | 8.51 µM | 1.06 µM | 6.65 µM | 2.12 µM | 1.04 µM | 1.9 µM | 1.01 µM
10 | COC(=O)C(=O)C(CC(=O)Nc1ccc(C)cc1)C(=O)OC (stereo not drawn) | > 100 µM | > 100 µM | – | > 100 µM | > 100 µM | > 100 µM | > 100 µM | – | > 100 µM | > 100 µM | > 100 µM | – | – | – | – | – | – | – | – | –
11 | CN/N=C(/c1nc2ccc([N+](=O)[O-])cc2[nH]c1=O)C(O)c1ccc(C(O)/C(=N\NC)c2nc3ccc([N+](=O)[O-])cc3[nH]c2=O)cc1 (stereo not drawn) | > 100 µM | 53.5 µM | – | > 100 µM | > 100 µM | > 100 µM | > 100 µM | – | > 100 µM | > 100 µM | > 100 µM | – | – | – | – | – | – | – | – | –
12 | CC(=O)c1cccc(NC(=O)C(=O)c2c(O)c3ccccc3oc2=O)c1 | > 100 µM | – | – | > 100 µM | > 100 µM | > 100 µM | > 100 µM | – | > 100 µM | > 100 µM | > 100 µM | – | – | > 100 µM | – | – | – | – | – | –
13 | C#CCN(N=O)C(=O)ON1C(=O)CCC1=O | > 100 µM | > 100 µM | – | > 100 µM | > 100 µM | > 100 µM | > 100 µM | – | > 100 µM | > 100 µM | > 100 µM | – | – | – | – | – | – | – | – | –
14 | COc1ccc(/C=C2\CCC(CCN(C)C)(C3=CCCC3)C2=O)cc1 (stereo not drawn) | 48.7 µM | 36.6 µM | – | 28.2 µM | 41.8 µM | 47.6 µM | 33.2 µM | – | 30.7 µM | 40 µM | 81.3 µM | – | – | – | – | – | – | – | – | –
15 | O=C1c2ccccc2C(=O)C12CCc1ccccc12 | – | > 100 µM | – | > 100 µM | > 100 µM | – | > 100 µM | – | > 100 µM | > 100 µM | > 100 µM | – | – | – | – | – | – | – | – | –
16 | COC(=O)C(C(=O)C(=O)Nc1ccc(C)cc1C)c1csc(-n2nc(-c3ccccc3)cc2-c2ccccc2)n1 (stereo not drawn) | – | > 100 µM | – | > 100 µM | > 100 µM | > 100 µM | > 100 µM | – | > 100 µM | > 100 µM | > 100 µM | – | – | – | – | – | – | – | – | –
17 | O=c1c2c(-c3ccccc3)c3ccccc3nc2cnn1-c1ccccc1 | > 100 µM | > 100 µM | – | > 100 µM | > 100 µM | > 100 µM | > 100 µM | – | > 100 µM | > 100 µM | > 100 µM | – | – | – | – | – | – | – | – | –
18 | COc1cccc(-c2cc(=O)c3cc4c(cc3[nH]2)OCO4)c1 | > 100 µM | 0.896 µM | – | > 100 µM | > 100 µM | 3.02 µM | 6.12 µM | – | 54.5 µM | > 69.5 µM | – | – | – | – | – | – | – | – | – | –
19 | N=c1c2ccccc2sc2nc3ccccc3n12 | – | > 100 µM | – | > 100 µM | > 100 µM | > 100 µM | > 100 µM | – | > 100 µM | > 100 µM | > 100 µM | – | – | – | – | – | – | – | – | –
20 | OC1=CN=COc2ccccc21 | > 100 µM | > 100 µM | – | > 100 µM | > 100 µM | – | > 100 µM | – | > 100 µM | > 100 µM | > 100 µM | – | – | – | – | – | – | – | – | –
21 | CN(C)N1C(=O)SCC(c2ccccc2)(c2ccccc2)C1=O | > 100 µM | > 100 µM | – | > 100 µM | > 100 µM | > 100 µM | – | – | > 100 µM | > 100 µM | > 100 µM | – | – | > 100 µM | – | – | – | – | – | –
